The record followed here is ChEMBL document CHEMBL3039007, “Structure-based identification of OATP1B1/3 inhibitors” (Mol Pharmacol, 2013).

As a reminder, the residual activity is the signal under treatment as a percentage of the control signal.

One data set has as its target T1, Solute carrier organic anion transporter family member 1B1 (Homo sapiens, UniProt Q9Y6L6).
T1 sequence (Q9Y6L6 whole entry): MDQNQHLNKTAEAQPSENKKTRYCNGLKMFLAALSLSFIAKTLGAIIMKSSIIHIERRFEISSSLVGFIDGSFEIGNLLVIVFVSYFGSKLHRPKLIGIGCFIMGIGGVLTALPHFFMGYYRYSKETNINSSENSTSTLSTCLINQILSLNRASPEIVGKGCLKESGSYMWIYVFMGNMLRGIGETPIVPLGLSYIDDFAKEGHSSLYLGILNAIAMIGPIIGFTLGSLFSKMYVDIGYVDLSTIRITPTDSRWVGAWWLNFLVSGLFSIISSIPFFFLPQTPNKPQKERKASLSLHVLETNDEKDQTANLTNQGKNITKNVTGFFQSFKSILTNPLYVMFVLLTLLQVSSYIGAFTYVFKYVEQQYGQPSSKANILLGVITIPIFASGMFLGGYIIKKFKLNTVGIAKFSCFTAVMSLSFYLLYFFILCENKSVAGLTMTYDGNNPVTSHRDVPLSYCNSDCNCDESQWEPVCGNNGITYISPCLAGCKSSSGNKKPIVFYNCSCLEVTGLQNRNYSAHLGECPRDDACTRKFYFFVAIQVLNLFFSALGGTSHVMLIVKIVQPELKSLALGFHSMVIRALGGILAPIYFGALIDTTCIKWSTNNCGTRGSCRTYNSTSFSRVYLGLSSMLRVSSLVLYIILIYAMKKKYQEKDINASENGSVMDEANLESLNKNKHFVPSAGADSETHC
The conditions noted are these: chinese hamster, cho, 10 µM.
As to `O=C(Cc1cccs1)N[C@@H]1C(=O)N2C(C(=O)[O-])=C(C[n+]3ccccc3)CS[C@H]12` [CEPHALORIDINE], the residual activity amounted to 14.22%.

As to `CCN1C[C@]2(C)CC[C@H](OC)[C@@]34C1[C@]1(OCO[C@@]15C[C@H](OC)[C@H]1C[C@]3(O)[C@@H]5[C@H]1OC)[C@@H](OC(C)=O)[C@H]24` [DELTALINE], the residual activity worked out at 88.11%.

For the compound `CCOC(=O)[C@H](CCc1ccccc1)N[C@H]1CCc2ccccc2N(CC(=O)O)C1=O.Cl` [BENAZEPRIL HYDROCHLORIDE], the residual activity amounted to 101.2%.

For `C=C1C([C@]2(C)C(CC(=O)OC)[C@@](C)(COC(C)=O)OC(=O)C[C@H]2OC(C)=O)[C@@H](OC=O)[C@@H](OC(=O)C(O)C(C)CC)[C@@]2(C)[C@H](c3ccoc3)CC(=O)C12O` (some centres not stated), the residual activity worked out at 28.24%.

Take `CNC1(C)C2CCC(C2)C1(C)C.Cl` (configuration not stated) [MECAMYLAMINE HYDROCHLORIDE]: the residual activity is given as 93.56%.

With `CO[C@]12C[C@@H](COC(=O)c3cncc(Br)c3)CN(C)[C@@H]1Cc1cn(C)c3cccc2c13` [NICERGOLINE], the residual activity is given as 91.22%.

Regarding `CN1[C@@H]2CC[C@H]1C[C@@H](OC(=O)[C@H](CO)c1ccccc1)C2` [HYOSCYAMINE], the residual activity turned out to be 97.76%.

Take `CCCCC(CC)CN=C(N)N=C(N)NCCCCCCNC(N)=NC(N)=NCC(CC)CCCC.Cl` (configuration not stated) [ALEXIDINE HYDROCHLORIDE]: the residual activity came out at 69.95%.

Regarding `CCCCCCCCCCCCC[N+](C)(C)Cc1ccccc1.[Cl-]` [BENZALKONIUM CHLORIDE], the residual activity is listed as 78.42%.

The next data set addresses T2, Solute carrier organic anion transporter family member 1B3 (Homo sapiens, UniProt Q9NPD5).
T2 sequence (Q9NPD5 whole entry): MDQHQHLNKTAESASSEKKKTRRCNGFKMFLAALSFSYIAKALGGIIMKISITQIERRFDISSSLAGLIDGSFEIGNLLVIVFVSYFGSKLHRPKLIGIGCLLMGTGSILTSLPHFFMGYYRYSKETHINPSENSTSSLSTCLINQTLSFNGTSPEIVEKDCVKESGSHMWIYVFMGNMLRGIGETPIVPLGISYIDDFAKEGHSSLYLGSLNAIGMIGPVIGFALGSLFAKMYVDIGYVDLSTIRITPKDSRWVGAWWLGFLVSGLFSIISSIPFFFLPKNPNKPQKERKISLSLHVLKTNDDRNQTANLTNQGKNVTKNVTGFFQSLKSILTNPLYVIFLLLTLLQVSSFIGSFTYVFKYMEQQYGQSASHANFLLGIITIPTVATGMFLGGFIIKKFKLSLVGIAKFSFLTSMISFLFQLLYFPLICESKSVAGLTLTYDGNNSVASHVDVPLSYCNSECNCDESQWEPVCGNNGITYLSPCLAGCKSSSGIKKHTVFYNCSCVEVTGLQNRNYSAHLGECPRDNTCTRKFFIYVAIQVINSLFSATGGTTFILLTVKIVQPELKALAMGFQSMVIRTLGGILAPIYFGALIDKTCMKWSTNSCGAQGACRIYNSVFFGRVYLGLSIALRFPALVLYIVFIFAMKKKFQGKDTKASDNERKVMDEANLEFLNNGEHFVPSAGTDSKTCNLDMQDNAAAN
As to conditions: chinese hamster, cho, 10 µM.
Regarding `O=C(Cc1cccs1)N[C@@H]1C(=O)N2C(C(=O)[O-])=C(C[n+]3ccccc3)CS[C@H]12` [CEPHALORIDINE], the residual activity turned out to be 31.99%.

Regarding `CCN1C[C@]2(C)CC[C@H](OC)[C@@]34C1[C@]1(OCO[C@@]15C[C@H](OC)[C@H]1C[C@]3(O)[C@@H]5[C@H]1OC)[C@@H](OC(C)=O)[C@H]24` [DELTALINE], the residual activity is on record as 103.5%.

On to `CCOC(=O)[C@H](CCc1ccccc1)N[C@H]1CCc2ccccc2N(CC(=O)O)C1=O.Cl` [BENAZEPRIL HYDROCHLORIDE], for which the residual activity turned out to be 84.15%.

For the compound `C=C1C([C@]2(C)C(CC(=O)OC)[C@@](C)(COC(C)=O)OC(=O)C[C@H]2OC(C)=O)[C@@H](OC=O)[C@@H](OC(=O)C(O)C(C)CC)[C@@]2(C)[C@H](c3ccoc3)CC(=O)C12O` (some centres not stated), the residual activity is listed as 54.44%.

On to `CNC1(C)C2CCC(C2)C1(C)C.Cl` (configuration not stated) [MECAMYLAMINE HYDROCHLORIDE], for which the residual activity was 106.8%.

Take `CO[C@]12C[C@@H](COC(=O)c3cncc(Br)c3)CN(C)[C@@H]1Cc1cn(C)c3cccc2c13` [NICERGOLINE]: the residual activity came to 124.1%.

Consider `C[C@@H]1C[C@H]2[C@@H]3CCC4=CC(=O)C=C[C@]4(C)[C@@]3(F)[C@@H](O)C[C@]2(C)[C@@]1(O)C(=O)CO` [DEXAMETHASONE], for which the residual activity is recorded as 103.9%.

As for `CC(=O)Oc1ccc2c(c1)CC[C@@H]1[C@@H]2CC[C@]2(C)[C@@H](O)CC[C@@H]12` [ESTRADIOL ACETATE], the residual activity stood at 101%.

Take `CC(=O)O[C@]1(C(C)=O)CC[C@H]2[C@@H]3C=C(Cl)C4=CC(=O)[C@@H]5C[C@@H]5[C@]4(C)[C@H]3CC[C@@]21C` [CYPROTERONE ACETATE]: the residual activity is reported as 103.2%.

Turning to `COc1cc(O)c2c(=O)cc(C)oc2c1CC=C(C)C` [HETEROPEUCENIN, METHYL ETHER], the residual activity came to 110.3%.

Turning to `Clc1ccccc1C(c1ccccc1)(c1ccccc1)n1ccnc1` [CLOTRIMAZOLE], the residual activity stood at 105.9%.

Consider `OCCN(CCO)c1nc(N2CCCCC2)c2nc(N(CCO)CCO)nc(N3CCCCC3)c2n1` [DIPYRIDAMOLE], for which the residual activity came to 89.24%.

Regarding `CC(=O)Oc1ccc2c(c1)CC[C@@H]1[C@@H]2CC[C@]2(C)[C@@H](OC(C)=O)CC[C@@H]12`, the residual activity is 113.7%.

Consider `CCC(=O)O[C@H]1CC[C@H]2[C@@H]3CCc4cc(O)ccc4[C@H]3CC[C@]12C` [ESTRADIOL PROPIONATE], for which the residual activity is given as 111.9%.

With `CN(C)CCC=C1c2ccccc2COc2ccccc21.Cl` [DOXEPIN HYDROCHLORIDE], the residual activity was 101.8%.

For `CCOc1ccc(Cc2nccc3cc(OCC)c(OCC)cc23)cc1OCC.Cl` [ETHAVERINE HYDROCHLORIDE], the residual activity was 156.2%.

`CCOC(=O)C1=C(C)NC(C)=C(C(=O)OC)C1c1cccc([N+](=O)[O-])c1` (configuration not stated) [NITRENDIPINE]: the residual activity is listed as 77.72%.

With `COc1ccc(-c2oc3cc(O[C@@H]4O[C@H](CO)[C@@H](O)[C@H](O)[C@H]4O)c(OC)c(O)c3c(=O)c2OC)cc1O` [CENTAUREIN], the residual activity worked out at 91.7%.

On to `CC/C(=C(/CC)c1ccc(O)cc1)c1ccc(O)cc1` [DIETHYLSTILBESTROL], for which the residual activity stood at 45.56%.

On to `COc1ccc(C(=O)O[C@@H]2CC[C@@]3(C)[C@@H]4CC[C@H]5[C@]6(O)C[C@H](O)[C@@]7(O)[C@@H](CN8C[C@@H](C)CC[C@H]8[C@@]7(C)O)[C@]6(O)C[C@@]53O[C@@]42O)cc1OC.O=S(=O)(O)O`, for which the residual activity worked out at 91.85%.

Turning to `C=C1CC[C@H](O)C/C1=C/C=C1\CCC[C@]2(C)[C@@H]([C@H](C)/C=C/[C@H](C)C(C)C)CC[C@@H]12` [ERGOCALCIFEROL], the residual activity worked out at 28.81%.

With `CC(=O)[C@H]1CC[C@H]2[C@@H]3CC=C4C[C@@H](O)CC[C@]4(C)[C@H]3CC[C@]12C` [PREGNENOLONE], the residual activity was 110.4%.

With `CN1C[C@H](CNC(=O)OCc2ccccc2)C[C@@H]2c3cccc4c3c(cn4C)C[C@H]21` [METERGOLINE], the residual activity amounted to 93.79%.

Regarding `CC(=O)O[C@H]1C(=O)[C@@]2(C)[C@H]([C@H](OC(=O)c3ccccc3)[C@]3(O)C[C@H](OC(=O)[C@H](O)[C@@H](NC(=O)c4ccccc4)c4ccccc4)C(C)=C1C3(C)C)[C@]1(OC(C)=O)CO[C@@H]1C[C@@H]2O` [PACLITAXEL], the residual activity was 52.9%.

Consider `COC1=C[C@@H](C)[C@@H]2C[C@H]3OC(=O)C[C@H]4C(C)=C(OC)C(=O)[C@H]([C@@]2(C)C1=O)[C@@]34C` [QUASSIN], for which the residual activity came out at 100.5%.

Take `O=C(CCCN1CC=C(n2c(=O)[nH]c3ccccc32)CC1)c1ccc(F)cc1` [DROPERIDOL]: the residual activity is given as 147.6%.

As for `COc1ccc2c(c1)O[C@H]1c3ccc(OC)cc3OC[C@@H]21` [HOMOPTEROCARPIN], the residual activity was found to be 109.3%.

Consider `C[C@H]1c2cccc(O)c2C(=O)C2=C(O)[C@]3(O)C(=O)C(C(N)=O)=C(O)[C@@H](N(C)C)[C@@H]3[C@@H](O)[C@@H]21.Cl` [DOXYCYCLINE HYDROCHLORIDE], for which the residual activity is 106%.

Take `O=C(O)CCc1nc(-c2ccccc2)c(-c2ccccc2)o1` [OXAPROZIN]: the residual activity is recorded as 71.47%.

For the compound `CC1(C)OC(=O)NC1=O` [DIMETHADIONE], the residual activity stood at 109.1%.

With `COc1ccc(/C=C/c2cc(O)cc(O)c2)cc1` [RESVERATROL 4'-METHYL ETHER], the residual activity worked out at 135%.

For `CC(=O)Oc1ccccc1C(=O)O` [ASPIRIN], the residual activity was 96.37%.

With `COc1ccc(-c2cc(=O)c3c(OC)c(OC)c(OC)c(OC)c3o2)cc1` [TANGERETIN], the residual activity is given as 175%.

Consider `O=P(O)(O)O.c1ccc(CN(CC2=NCCN2)c2ccccc2)cc1` [ANTAZOLINE PHOSPHATE], for which the residual activity worked out at 97.11%.

For the compound `CCCCC1C(=O)N(c2ccccc2)N(c2ccccc2)C1=O` [PHENYLBUTAZONE], the residual activity turned out to be 62.24%.

With `CC(=O)Oc1c(C)c(C)c2c(c1C)CCC(C)(CCCC(C)CCCC(C)CCCC(C)C)O2` (stereo not drawn) [alpha-TOCHOPHERYL ACETATE], the residual activity was 93.84%.

As to `COc1ccc(-c2cc(=O)c3c(OC)c(OC)c(OC)c(OC)c3o2)cc1OC` [NOBILETIN], the residual activity is reported as 133.3%.

For `O=c1[nH]c2ccccc2n1CCCN1CCC(n2c(=O)[nH]c3cc(Cl)ccc32)CC1` [DOMPERIDONE], the residual activity is given as 111%.

`CN[C@@H](C)[C@H](O)c1ccccc1.Cl` [EPHEDRINE HYDROCHLORIDE]: the residual activity is given as 105.1%.

With `CC(=O)OCC(=O)[C@H]1CC[C@H]2[C@@H]3CCC4=CC(=O)CC[C@]4(C)[C@H]3CC[C@]12C` [DESOXYCORTICOSTERONE ACETATE], the residual activity is 88.97%.

As for `CC1=C(C(=O)O)N2C(=O)[C@@H](NC(=O)[C@H](N)C3=CCC=CC3)[C@H]2SC1` [CEPHRADINE], the residual activity is on record as 100.4%.

For `CN(C)CCOC(C)(c1ccccc1)c1ccccn1.O=C(O)CCC(=O)O` (configuration not stated) [DOXYLAMINE SUCCINATE], the residual activity is reported as 108.8%.

With `COc1cc(O)cc(/C=C/c2ccccc2)c1` [PINOSYLVIN METHYL ETHER], the residual activity was determined as 91.5%.
